Experimental data from patent publication US12660819B2, “Herbicidal derivatives” (SYNGENTA CROP PROTECTION AG, priority 2020, dated 2026).

How the values were obtained:
Type in all cases: in vivo
[1] = test system: Abutilon theophrasti (ABUTH); assay: Pre-emergence Test (glasshouse, percentage damage to the plant); conditions: 1000 g/ha unless otherwise stated, five-point scale
[2] = test system: Setaria faberi (SETFA); assay: as above; conditions: 1000 g/ha unless otherwise stated, five-point scale
[3] = test system: Amaranthus retoflexus (AMARE); assay: as above; conditions: 1000 g/ha unless otherwise stated, five-point scale
[4] = test system: Echinochloa crus-galli (ECHCG); assay: as above; conditions: 1000 g/ha unless otherwise stated, five-point scale
[5] = test system: Zea mays (ZEAMX); assay: as above; conditions: 1000 g/ha unless otherwise stated, five-point scale
[6] = test system: Ipomoea hederacea (IPOHE); assay: as above; conditions: 1000 g/ha unless otherwise stated, five-point scale
[7] = test system: Zea mays (ZEAMX); assay: Post-emergence Test (glasshouse, percentage damage to the plant); conditions: post-emergence spray, 1000 g/ha unless otherwise stated, evaluated after 13 days
Experimental: (§1) Seeds of a variety of test species are sown in standard soil in pots (Amaranthus retoflexus (AMARE), Solanum nigrum (SOLNI), Setaria faberi (SETFA), Lolium perenne (LOLPE), Echinochloa crus-galli (ECHCG), Ipomoea hederacea (IPOHE), Abutilon theophrasti (ABUTH), Zea mays (ZEAMX), Amaranthus palmeri (AMAPA). After 8 days cultivation under controlled conditions in a glasshouse (at 24° C./16° C., day/night; 14 hours light; 65% humidity), the plants are sprayed with an aqueous spray solution derived from the formulation of the technical active ingredient in acetone/water (50:50) solution containing 0.5% Tween 20 (polyoxyethelyene sorbitan monolaurate, CAS RN 9005-64-5). Compounds are applied at 1000 g/ha unless otherwise stated. The test plants are then grown in a glasshouse under controlled conditions in a glasshouse (at 24° C./16° C., day/night; 14 hours light; 65% humidity) and watered twice daily. After 13 days the test is evaluated for the percentage damage caused to the plant. The biological activities are shown in the following table on a five-point scale (5=81-100%; 4=61-80%; 3=41-60%; 2=21-40%; 1=0-20%).

[8] = test system: Amaranthus retoflexus (AMARE); assay: as above; conditions: post-emergence spray, 1000 g/ha unless otherwise stated, evaluated after 13 days
Experimental: as §1

[9] = test system: Ipomoea hederacea (IPOHE); assay: as above; conditions: post-emergence spray, 1000 g/ha unless otherwise stated, evaluated after 13 days
Experimental: as §1

[10] = test system: Setaria faberi (SETFA); assay: as above; conditions: post-emergence spray, 1000 g/ha unless otherwise stated, evaluated after 13 days
Experimental: as §1

Row | Structure (SMILES) | percentage damage to the plant, ABUTH [1] | percentage damage to the plant, SETFA [2] | percentage damage to the plant, AMARE [3] | percentage damage to the plant, ECHCG [4] | percentage damage to the plant, ZEAMX [5] | percentage damage to the plant, IPOHE [6] | Post-emergence Test ZEAMX, percentage damage to the plant (five-point scale) [7] | Post-emergence Test AMARE, percentage damage to the plant (five-point scale) [8] | Post-emergence Test IPOHE, percentage damage to the plant (five-point scale) [9] | Post-emergence Test SETFA, percentage damage to the plant (five-point scale) [10]
1 | CCn1c(C)c(-c2ccc(C(F)(F)F)cc2)c(=O)c(C(=O)O)c1-c1ccnc(Cl)c1 [Compound 140, 2-(2-chloro-4-pyridyl)-1-ethyl-6-methyl-4-oxo-5-[4-(trifluoromethyl)phenyl] pyridine-3-carboxylic acid] | 1 (1=0-20%) | 2 (2=21-40%) | 1 (1=0-20%) | 2 (2=21-40%) | 0 | 1 (1=0-20%) | 1 (1=0-20%) | 1 (1=0-20%) | 3 (3=41-60%) | 4 (4=61-80%)
2 | CCn1c(C)c(-c2cccc(C(F)(F)F)c2)c(=O)c(C(=O)O)c1-c1ccnc(Cl)c1 [Compound 145, 2-(2-chloro-4-pyridyl)-1-ethyl-6-methyl-4-oxo-5-[3-(trifluoromethyl)phenyl] pyridine-3-carboxylic acid] | 1 (1=0-20%) | 3 (3=41-60%) | 1 (1=0-20%) | 2 (2=21-40%) | 0 | 0 | 1 (1=0-20%) | 1 (1=0-20%) | 2 (2=21-40%) | 3 (3=41-60%)
3 | CCn1c(-c2ccc(Cl)c(Cl)c2)c(C(=O)OC)c(=O)c(-c2ccc(Cl)cc2)c1C(F)(F)F [Compound 169, methyl 5-(4-chlorophenyl)-2-(3,4-dichlorophenyl)-1-ethyl-4-oxo-6-(trifluoromethyl) pyridine-3-carboxylate] | 0 | 0 | 0 | 0 | 0 | 0 | 1 (1=0-20%) | 1 (1=0-20%) | 0 | 0
4 | CCn1c(C)c(-c2ccc(C(F)(F)F)c(Cl)c2)c(=O)c(C(=O)O)c1-c1ccc(Cl)cc1 [Compound 170, 2-(4-chlorophenyl)-5-[3-chloro-4-(trifluoromethyl)phenyl]-1-ethyl-6-methyl-4-oxo-pyridine-3-carboxylic acid] | 0 | 0 | 1 (1=0-20%) | 0 | 0 | 0 | 2 (2=21-40%) | 5 (5=81-100%) | 3 (3=41-60%) | 1 (1=0-20%)
5 | CCn1c(C)c(-c2ccc(C(F)(F)F)c(Cl)c2)c(=O)c(C(=O)O)c1-c1ccc(Cl)cc1 [Compound 171, 2-(4-chlorophenyl)-5-[3-chloro-4-(trifluoromethyl)phenyl]-1-ethyl-6-methyl-4-oxo-pyridine-3-carboxylic acid] | 0 | 0 | 0 | 1 (1=0-20%) | 0 | 1 (1=0-20%) | 2 (2=21-40%) | 3 (3=41-60%) | 4 (4=61-80%) | 3 (3=41-60%)
6 | CCn1c(C)c(-c2cccc(Cl)c2Cl)c(=O)c(C(=O)O)c1-c1ccc(Cl)cc1 [Compound 172, 2-(4-chlorophenyl)-5-(2,3-dichlorophenyl)-1-ethyl-6-methyl-4-oxo-pyridine-3-carboxylic acid] | 1 (1=0-20%) | 3 (3=41-60%) | 1 (1=0-20%) | 3 (3=41-60%) | 0 | 1 (1=0-20%) | 2 (2=21-40%) | 2 (2=21-40%) | 4 (4=61-80%) | 4 (4=61-80%)
7 | CCn1c(C)c(-c2cc(C(F)(F)F)ccc2F)c(=O)c(C(=O)O)c1-c1ccc(Cl)cc1 [Compound 177, 2-(4-chlorophenyl)-1-ethyl-5-[2-fluoro-5-(trifluoromethyl)phenyl]-6-methyl-4-oxo-pyridine-3-carboxylic acid] | 3 (3=41-60%) | 2 (2=21-40%) | 1 (1=0-20%) | 1 (1=0-20%) | 0 | 3 (3=41-60%) | 3 (3=41-60%) | 4 (4=61-80%) | 3 (3=41-60%) | 4 (4=61-80%)
8 | CCn1c(C)c(-c2cccc(C(F)(F)F)c2F)c(=O)c(C(=O)O)c1-c1ccc(Cl)cc1 [Compound 181, 2-(4-chlorophenyl)-1-ethyl-5-[2-fluoro-3-(trifluoromethyl)phenyl]-6-methyl-4-oxo-pyridine-3-carboxylic acid] | 4 (4=61-80%) | 5 (5=81-100%) | 1 (1=0-20%) | 4 (4=61-80%) | 2 (2=21-40%) | 4 (4=61-80%) | 1 (1=0-20%) | 3 (3=41-60%) | 2 (2=21-40%) | 3 (3=41-60%)
9 | CCn1c(C)c(-c2cc(C(F)(F)F)ccc2Cl)c(=O)c(C(=O)O)c1-c1ccc(Cl)cc1 [Compound 183, 2-(4-chlorophenyl)-5-[2-chloro-5-(trifluoromethyl)phenyl]-1-ethyl-6-methyl-4-oxo-pyridine-3-carboxylic acid] | 0 | 0 | 0 | 0 | 0 | 0 | 3 (3=41-60%) | 3 (3=41-60%) | 3 (3=41-60%) | 2 (2=21-40%)
